# In patent US8829004B2, “Method for inducing tumor apoptosis by increasing nitric oxide levels” (Universitätsklinikum Freiburg, priority 2006, dated 2014):
# Key:
# L929 cells = test: Apoptosis induction by azoles in L929 cells with TGF-beta; assay type: cell-based, murine; details: 2 mM histidine; 3-AT at 25 mM
# Procedure: FIG. 3 discloses experimental data obtained with 25000 L929 cells in 48 well tissue culture clusters in the presence of 20 ng/ml TGF-beta. Itraconazole was added at the indicated concentrations, in the presence or absence of 2 mM histidine (singlet oxygen scavenger). The percentage of apoptotic cells was determined after 37 hrs.
# The dashed lines indicate the percentage of apoptotic cells obtained when the tumor cell catalase was blocked by 25 mM […] (3-AT).
# FIG. 4 discloses experimental data obtained with 25000 L929 cells in 48 well tissue culture clusters in the presence of 20 ng/ml TGF-beta. “No addition” represents the control without addition of compound. […] The percentage of apoptotic cells was determined after 63 hrs.
# The first step comprises contacting tumor cells in media comprising TGF-beta with the test compounds to be analyzed for their properties of apoptosis induction. After a specific incubation time, the extent of apoptosis induction is determined, e.g. after two days. Methods for determining the apoptosis in cells in a quantitative manner are well known in the art and are for example described by Jürgensmeier et al. (Cancer Research 1994; 54:393-398). […] These features of apoptotic cells can be determined through phase contrast microscopy or after chromatin staining with fluorescent dyes, followed by fluorescence microscopy. […]
# [1] = tested on: SKNMC cells (human neuroblastoma); test: Apoptosis induction in SKNMC cells with ROS pathway inhibitors (FIG. 5); assay type: cell-based
# Procedure: FIG. 5 discloses experimental data obtained with 25 000 SKNMC cells (human neuroblastoma) in 48 well tissue culture clusters (without addition of TGF-beta). […] Control assays contained the respective compound in the absence of any inhibitors. Parallel assays contained either 200 μM of the NADPH (nicotinamide adenine dinucleotide phosphate) oxidase inhibitor AEBSF, 10 μM of the nNOS-specific NO synthetase inhibitor 3-Br-7-Ni (3-bromo-7-nitroindazole), 2 mM of the singlet oxygen scavenger histidine or 50 mM of the HOCl scavenger taurine. The percentage of apoptotic cells was determined at the indicated time points.
# For all inducers, apoptosis induction was dependent on superoxide anion generation and NO synthesis, as it was blocked by AEBSF and 3-Br-7-Ni respectively. In contrast to the NO/peroxynitrite pathway, the HOCl pathway played no role for apoptosis induction in this particular line. Apoptosis induction by all azoles tested depended on singlet oxygen action, as it was blocked by histidine.
# [2] = tested on: SISO cells (human cervix carcinoma); test: Apoptosis induction by taxol in SISO cells, 48 well (FIGS. 6-8, Example 4); assay type: cell-based; details: for synergistic effect with taxol on apoptosis: 10 mM arginine, 200 μM Nor-NOHA or both, suboptimal taxol, 20 ng/ml TGF
# Procedure: FIG. 6 discloses experimental data obtained with 25000 SISO cells (human cervix carcinoma) cultured in 48 well tissue culture clusters in the presence of the indicated concentrations of the established chemotherapeutic compound taxol. The assays contained 2 mM Histidine or not.
# FIG. 7 discloses experimental data obtained with 25000 SISO cells (human cervix carcinoma) cultured in 48 well tissue culture clusters either in the absence of any inducer (“no addition”) or in the presence of 10 μg/ml taxol (“TAX”) without further additions or with the addition of 100 μM of the NADPH oxidase inhibitor AEBSF, 100 U/ml of the superoxide anion scavenger SOD (Manganese-containing SOD from E. coli), 100 U/ml catalase, 150 μM of the peroxidase inhibitor ABH (aminobenzoylhydrazide), 50 mM of the HOCl scavenger taurine, 1 mM of the hydroxyl radical scavenger mannitol, 2.4 mM of the NO synthase inhibitor L-NAME, and 25 μM of the inhibitors for caspase 3, −9 and 8.
# FIG. 8 discloses experimental data obtained with 25 000 SISO cells in 48 well tissue culture clusters in the presence of 20 ng/ml TGF and the indicated concentrations of taxol. Where indicated, taxol containing assays received 10 mM arginine (10 ARG), 200 μM Nor-NOHA or a combination of both.
# Human SISO cells are used in a 48-well plate (Costar) in 200 μl media with a cell concentration of 25,000. The media comprises 20 ng/ml TGF-beta and furthermore Taxol subjected for testing in a concentration ranging from 1.25-20 ng/ml. For comparison, control experiments are performed without Taxol which is tested for apoptosis induction.
# Step 2 is carried out with the same conditions as specified for step 1, whereas all cells are contacted with taxol. In addition, histidine (2 mM) is added to the cells, whereas also experiments without histidine are performed as control experiments.
# In a further experiment using the conditions of step 1, human tumor cells (SISO) are contacted with taxol (10 μg/ml) and 100 μM of the NADPH oxidase inhibitor AEBSF, 100 U/ml of the superoxide anion scavenger SOD (Manganese-containing SOD from E. coli), 100 U/ml catalase, 150 μM of the peroxidase inhibitor ABH (aminobenzoylhydrazide), 50 mM of the HOCl scavenger taurine, 1 mM of the hydroxyl radical scavenger mannitol or 2.4 mM of the NO synthase inhibitor L-NAME.
# SKNMC = test: Inhibitor effect on inducer-mediated apoptosis, SKNMC cells (Example 6); assay type: cell-based, human
# Procedure: (§1) The effect of a singlet oxygen scavenger, a NO synthase inhibitor and a HOCl scavenger on either the destruction of the catalase or the HOCl pathway was determined by the following experiment. 12500 SISO cells in 100 μl media in 96 tissue wells were treated with taxol (20 μg/ml) in the presence of TGF-β (20 ng/ml). In addition, the singlet oxygen scavenger, the NO synthase inhibitor or the HOCl scavenger was added at different points of time in the experiments.
# (§2) Further experiments have been carried out using different types of cells and different apoptosis inhibitors. The experimental setup was analogue to the examples 5a-5c and the late addition of the inhibitor (histidine, L-NAME, 3-Br-7-Nitroindazole or taurine) was performed 1 hour after beginning of the experiment. The concentrations of taxol, histidine, L-NAME and taurine were the same as in the experiments 5a-5c. 3-Br-7-Nitroindazole was added at a concentration of 10 μm. The apoptosis inducing compounds were added at increasing concentrations (0-5 mM arginine, 0-20 μg/ml taxol, 0-20 μg/ml artemisine, 0-20 μg/ml xanthohumol, 0-20 μg/ml itraconazole, 0-10 μg/ml miconazole, 0-20 μg/ml antibody against Apo/FAS receptor). In each of the experiments, the effect of the inhibitors on the singlet oxygen mediated catalase destruction and/or the subsequent ROS signaling could be observed. […]
# Gumbus = test: Inhibitor effect on inducer-mediated apoptosis, Gumbus cells (Example 6); assay type: cell-based
# Procedure: as §1
# (§3) Further experiments have been carried out using different types of cells and different apoptosis inhibitors. The experimental setup was analogue to the examples 5a-5c and the late addition of the inhibitor (histidine, L-NAME, 3-Br-7-Nitroindazole or taurine) was performed 1 hour after beginning of the experiment. The concentrations of taxol, histidine, L-NAME and taurine were the same as in the experiments 5a-5c. 3-Br-7-Nitroindazole was added at a concentration of 10 μm. The apoptosis inducing compounds were added at increasing concentrations (0-5 mM arginine, 0-20 μg/ml taxol, 0-20 μg/ml artemisine, 0-20 μg/ml xanthohumol, 0-20 μg/ml itraconazole, 0-10 μg/ml miconazole, 0-20 μg/ml antibody against Apo/FAS receptor). In each of the experiments, the effect of the inhibitors on the singlet oxygen mediated catalase destruction and/or the subsequent ROS signaling could be observed. […] Addition of histidine at the beginning of the experiment caused inhibition in all experiments and for all cell lines shown. […] The experiments using neuroblastoma cells only display apoptosis mediated by the NO pathway as these cells only release small amounts of peroxidase. Therefore, addition of the nNOS-specific inhibitor 3-Br-7NI caused inhibition of apoptosis, irrespective of the time of addition. […] Addition of taurine in the presence of higher concentrations of inducers inhibited apoptosis irrespective of the time of addition (zero versus one hour), as HOCl is only involved in intercellular signaling, but not in catalase destruction.
# MKN-45 = test: Inhibitor effect on inducer-mediated apoptosis, MKN-45 cells (Example 6); assay type: cell-based
# Procedure: as §1, §3
# [3] = tested on: normal diploid fibroblasts; test: Toxicity test on normal diploid fibroblasts (step 3); assay type: cell-based; details: conditions of step 1, two days; data not shown
# Procedure: The method for identifying suitable compounds can additionally comprise a third step. The third step comprises contacting the identified compounds from step 2 with normal diploid fibroblasts in order to determine whether these compounds induce apoptosis or other toxic reactions and are therefore not suitable for a medical use.
# The experimental conditions are the same as for step 1, whereas the cells used for step 3 are normal diploid fibroblasts. Control experiments are carried out without the test compound, and the cells are incubated for two days.
# SISO cells = test: Timed inhibitor addition on inducer-mediated apoptosis in SISO cells, 96 well (Examples 5, 6); assay type: cell-based, human
# Procedure: FIG. 9 discloses experimental data obtained with 12500 SISO cells in 96 well tissue culture clusters in the presence of 20 ng/ml TGF and the indicated concentrations of taxol. Furthermore, histidine was added at different time points in the experiment.
# FIG. 11 refers to a similar experiment as described with respect to FIG. 8 or 9, whereas histidine/L-NAME was substituted by taurine (50 mM, scavenger of HOCl).
# as §1
# The concentrations of taxol, histidine, L-NAME and taurine were the same as in the experiments 5a-5c. 3-Br-7-Nitroindazole was added at a concentration of 10 μm. The apoptosis inducing compounds were added at increasing concentrations (0-5 mM arginine, 0-20 μg/ml taxol, 0-20 μg/ml artemisine, 0-20 μg/ml xanthohumol, 0-20 μg/ml itraconazole, 0-10 μg/ml miconazole, 0-20 μg/ml antibody against Apo/FAS receptor).
# SHEP = test: Inhibitor effect on inducer-mediated apoptosis, SHEP cells (Example 6); assay type: cell-based, human
# Procedure: as §1, §2
# [4] = tested on: SISO cells (human cervix carcinoma); test: Apoptosis induction by taxol in SISO cells, 48 well (FIGS. 6-8, Example 4); assay type: cell-based
# [5] = SISO, inducer at increasing concentrations
structure (smiles),measurement,setting,value
"Nc1nc[nH]n1 [3-AT, 3-aminotriazole]",effect of histidine on induced apoptosis,L929 cells,not blocked by histidine
same,effect of histidine on induced apoptosis (singlet oxygen dependence),[1]; 2 mM histidine,singlet oxygen is not required
same,apoptosis induction (percentage of apoptotic cells),"[1]; 12.5 or 25 μg/ml azole, 75 mM 3-AT, without TGF-beta",induced apoptosis in the tumor cells to a significant extent
N=C(N)NCCC[C@H](N)C(=O)O [Arginine],synergistic effect with taxol on apoptosis,[2],synergistic effect
same,apoptosis inhibitory effect of Histidine,SKNMC,+
same,apoptosis inhibitory effect of 3-Br-7-NI,SKNMC; 3-Br-7-Nitroindazole 10 μm,+
same,apoptosis inhibitory effect of Histidine,Gumbus,+
same,apoptosis inhibitory effect of L-NAME,Gumbus,+
same,apoptosis inhibitory effect of Taurine,Gumbus,+
C[C@@H]1CC[C@H]2[C@@H](C)C(=O)O[C@@H]3O[C@@]4(C)CC[C@@H]1[C@]32OO4 [Artemisinine],apoptosis inhibitory effect of Histidine,MKN-45,+
same,apoptosis inhibitory effect of L-NAME,MKN-45,+
same,apoptosis inhibitory effect of Taurine,MKN-45,+
CCC(C)n1ncn(-c2ccc(N3CCN(c4ccc(OCC5COC(Cn6cncn6)(c6ccc(Cl)cc6Cl)O5)cc4)CC3)cc2)c1=O (centres unmarked) [Itraconazole],apoptosis inhibitory effect of Histidine,Gumbus,+
same,apoptosis inhibitory effect of L-NAME,Gumbus,+
same,apoptosis inhibitory effect of Taurine,Gumbus,+
Clc1ccc(COC(Cn2ccnc2)c2ccc(Cl)cc2Cl)c(Cl)c1 (centres unmarked) [Miconazole],apoptosis inhibitory effect of Histidine,Gumbus,+
same,apoptosis inhibitory effect of L-NAME,Gumbus,+
same,apoptosis inhibitory effect of Taurine,Gumbus,+
"N=C(NO)NCC[C@H](N)C(=O)O [Nor-NOHA, N^omega-hydroxy-nor-L-arginine]",synergistic effect with taxol on apoptosis,[2],synergistic effect
CC(=O)O[C@H]1C(=O)[C@@]2(C)[C@H]([C@H](OC(=O)c3ccccc3)[C@]3(O)C[C@H](OC(=O)[C@H](O)[C@@H](NC(=O)c4ccccc4)c4ccccc4)C(C)=C1C3(C)C)[C@]1(OC(C)=O)CO[C@@H]1C[C@@H]2O [Taxol],effect of histidine on taxol-induced apoptosis,[2]; 2 mM histidine,inhibited by histidine at all concentrations
same,apoptosis induction,"[2]; Taxol 1.25-20 ng/ml, 20 ng/ml TGF-beta",apoptosis already occurs after 12.5 hours at all concentrations
same,caspase dependence of apoptosis induction,"[2]; taxol 10 μg/ml, 25 μM inhibitors for caspase 3, -9 and 8",mediated by caspases 9 and 3 (mitochondrial pathway) and is independent of the death receptor specific caspase 8
same,"effect of inhibitors of superoxide anion generation (AEBSF, SOD) on taxol-mediated apoptosis","[2]; taxol 10 μg/ml, 100 μM AEBSF, 100 U/ml SOD",inhibited
same,effect of inhibitor of the NO pathway (L-NAME) on taxol-mediated apoptosis,"[2]; taxol 10 μg/ml, 2.4 mM L-NAME",not by the inhibitor of the NO pathway
same,"effect of inhibitors of the HOCl pathway (catalase, ABH, taurine, mannitol) on taxol-mediated apoptosis","[2]; taxol 10 μg/ml, 100 U/ml catalase, 150 μM ABH, 50 mM taurine, 1 mM mannitol",inhibited
same,apoptosis induction in diploid fibroblasts,[3],did not induce significant apoptosis
same,effect of histidine added at the beginning on taxol-induced apoptosis,SISO cells; 2 mM histidine at start,inhibits the tumor apoptosis to a great extend
same,effect of late addition of L-NAME on taxol-induced apoptosis,SISO cells; 2.4 mM L-NAME 5 hours after beginning,only shows some inhibition at low taxol concentrations
same,effect of early addition of L-NAME on taxol-induced apoptosis,SISO cells; 2.4 mM L-NAME at start,inhibits tumor apoptosis
same,effect of taurine on taxol-induced apoptosis,SISO cells; 50 mM taurine at start or after 5 hours,only inhibits tumor apoptosis at high taxol concentrations
same,apoptosis inhibitory effect of Histidine,SISO cells; [5],+
same,apoptosis inhibitory effect of L-NAME,SISO cells; [5],+
same,apoptosis inhibitory effect of Taurine,SISO cells; [5],+
same,effect of late addition of histidine on taxol-induced apoptosis,SISO cells; histidine 5 hours after beginning,only shows a small effect of apoptosis inhibition
same,apoptosis inhibitory effect of Histidine,SHEP,+
same,apoptosis inhibitory effect of 3-Br-7-NI,SHEP; 3-Br-7-Nitroindazole 10 μm,+
same,apoptosis inhibitory effect of Histidine,Gumbus,+
same,apoptosis inhibitory effect of L-NAME,Gumbus,+
same,apoptosis inhibitory effect of Taurine,Gumbus,+
same,signaling pathway used at low taxol concentration,"[4]; 2 μg/ml taxol, data not shown",the NO pathway became more prominent
same,apoptosis induction in SISO cells with siRNA knockdown of superoxide anion generation,[4]; siRNA-based genetic knockdown,did not lead to taxol-mediated apoptosis induction
COc1cc(O)c(CC=C(C)C)c(O)c1C(=O)/C=C/c1ccc(O)cc1 [Xanthohumol],apoptosis inhibitory effect of Histidine,Gumbus,+
same,apoptosis inhibitory effect of L-NAME,Gumbus,+
same,apoptosis inhibitory effect of Taurine,Gumbus,+
